One may read the pKi as −log10 of the Ki, conventionally taken in molar units. As usually defined, the pIC50 is the negative decadic logarithm of the IC50, by convention in mol/L.

Data on ten compounds can be found in ChEMBL document CHEMBL1944555, “Selective and slow-binding inhibition of shikonin derivatives isolated from Lithospermum erythrorhizon on glycosyl hydrolase 33 and 34 sialidases” (Bioorg Med Chem, 2012).

Assay [1] is described as follows: Inhibition of rhamnosidase at 200 uM.
Assay [2] is described as follows: Inhibition of beta-glucosidase at 200 uM.
Assay [3] deals with Clostridium perfringens. As to the kind of experiment: Competitive inhibition of Clostridium perfringens ATCC 10543 sialidase Nan1 c-terminal catalytic domain using 4-methylumbelliferyl-alpha-D-N-acetylneuraminic acid sodium salt hydrate as substrate by Lineweaver-Burk and Dixon plot analysis.
Assay [4] in a line: Reversible inhibition of Clostridium perfringens ATCC 10543 sialidase Nan1 c-terminal catalytic domain using 4-methylumbelliferyl-alpha-D-N-acetylneuraminic acid sodium salt hydrate as substrate compound pre-incubated prior to substrate addition by fluorimetric analysis. Conditions: read-out: Ki(app).
Assay [5] relates to Clostridium perfringens. In words: Inhibition of Clostridium perfringens ATCC 10543 sialidase Nan1 c-terminal catalytic domain using 4-methylumbelliferyl-alpha-D-N-acetylneuraminic acid sodium salt hydrate as substrate at IC50 concentration pre-incubated for 10 mins prior substrate addition by fluorimetric analysis. To be noted: TDE = time-dependent effect.
Assay [6] in a line: Inhibition of alpha-glucosidase.
The test system of assay [7] is Clostridium perfringens. In words: (§1) Inhibition of Clostridium perfringens ATCC 10543 sialidase Nan1 c-terminal catalytic domain using 4-methylumbelliferyl-alpha-D-N-acetylneuraminic acid sodium salt hydrate as substrate by fluorimetric analysis.
The nature of assay [8]: as §1.
Assay [9] concerns the target Neuraminidase (Influenza A virus (strain A/Brevig Mission/1/1918 H1N1) (Influenza Avirus (strain A/South Carolina/1/1918 H1N1))) (UniProt Q9IGQ6). As to the kind of experiment: (§2) Inhibition of recombinant influenza A virus H1N1 A/Bervig_Mission/1/18 sialidase activity using 4-methylumbelliferyl-alpha-D-N-acetylneuraminic acid sodium salt hydrate as substrate by fluorimetric analysis. Conditions: Influenza A virus (A/Brevig Mission/1/1918(H1N1)).

In assay [10] the target is Neuraminidase (Influenza A virus (strain A/Brevig Mission/1/1918 H1N1) (Influenza Avirus (strain A/South Carolina/1/1918 H1N1)), UniProt Q9IGQ6). The description is as §2. Also noted: species or system Influenza A virus (A/Brevig Mission/1/1918(H1N1)).
Neuraminidase (Influenza A virus (strain A/Brevig Mission/1/1918 H1N1) (Influenza Avirus (strain A/South Carolina/1/1918 H1N1)), UniProt Q9IGQ6), sequence (Q9IGQ6 whole entry): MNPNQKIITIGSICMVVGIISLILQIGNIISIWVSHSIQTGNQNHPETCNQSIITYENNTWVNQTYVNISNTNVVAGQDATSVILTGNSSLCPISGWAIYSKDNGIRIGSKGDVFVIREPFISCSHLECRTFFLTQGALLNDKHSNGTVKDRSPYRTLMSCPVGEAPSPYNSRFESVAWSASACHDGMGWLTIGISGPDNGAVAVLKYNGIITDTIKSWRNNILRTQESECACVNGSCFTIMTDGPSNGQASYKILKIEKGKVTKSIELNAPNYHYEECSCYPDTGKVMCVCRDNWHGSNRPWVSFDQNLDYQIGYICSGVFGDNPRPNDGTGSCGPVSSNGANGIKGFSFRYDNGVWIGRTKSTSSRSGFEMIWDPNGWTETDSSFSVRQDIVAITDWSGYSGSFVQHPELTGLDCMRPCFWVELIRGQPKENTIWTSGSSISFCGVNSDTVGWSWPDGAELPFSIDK
For assay [11], the target named is Neuraminidase (Influenza A virus (strain A/Brevig Mission/1/1918 H1N1) (Influenza Avirus (strain A/South Carolina/1/1918 H1N1))) (UniProt Q9IGQ6). As to the kind of experiment: Noncompetitive inhibition of recombinant influenza A virus H1N1 A/Bervig_Mission/1/18 sialidase activity using 4-methylumbelliferyl-alpha-D-N-acetylneuraminic acid sodium salt hydrate as substrate by Lineweaver-Burk and Dixon plot analysis. To be noted: Influenza A virus (A/Brevig Mission/1/1918(H1N1)).
Neuraminidase (Influenza A virus (strain A/Brevig Mission/1/1918 H1N1) (Influenza Avirus (strain A/South Carolina/1/1918 H1N1))), sequence (Q9IGQ6 whole entry): as above

Assay [12] can be described thus: Inhibition of alpha-glucosidase at 200 uM.
For assay [13], the target named is Neuraminidase (Influenza A virus (strain A/Brevig Mission/1/1918 H1N1) (Influenza Avirus (strain A/South Carolina/1/1918 H1N1))) (UniProt Q9IGQ6). In words: Inhibition of recombinant influenza A virus H1N1 A/Bervig_Mission/1/18 sialidase activity using 4-methylumbelliferyl-alpha-D-N-acetylneuraminic acid sodium salt hydrate as substrate at 200 uM by fluorimetric analysis. To be noted: Influenza A virus (A/Brevig Mission/1/1918(H1N1)).

pIC50, pKi: −log10 of the molar value. The source made the active and inactive calls. No cut-off for these calls is given here.

Consider `CC(=O)O[C@H](CC=C(C)C)C1=CC(=O)c2c(O)ccc(O)c2C1=O` [ACETYLSHIKONIN], for which the inhibition result in assay [1] and in assay [2] was “inactive” throughout. In addition, the Kic in the assay on Clostridium perfringens [3] amounted to 1.1 µM. In assay [4], the negative logarithm of the Ki (pKi) is 6.00. In addition, the inhibition entry is “tde” in the assay on Clostridium perfringens [5], “Dose-dependent effect” in the assay with Clostridium perfringens [7] and “Dose-dependent effect” in assay [9]. Also, the pIC50 in [6] is 3.80; in assay [8], 5.60; in assay [10] it was 4.38. Further, in assay [11], the inhibition entry was “Active”.
As for `CC(C)=CC[C@@H](OC(=O)CC(C)(C)O)C1=CC(=O)c2c(O)ccc(O)c2C1=O` [BETA-HYDROXYISOVALERYLSHIKONIN], the inhibition result in assay [1], in [12] and in assay [2] was “inactive” throughout. Also, the Kic with Clostridium perfringens [3] was 0.8 µM. Also, the pKi in assay [4] is 5.65. The inhibition result was “tde” in the assay on Clostridium perfringens [5], “Dose-dependent effect” in the assay with Clostridium perfringens [7] and “Dose-dependent effect” in assay [9]. In addition, the pIC50 is 5.47 in assay [8] and 4.39 in assay [10]. The inhibition result in assay [11] was “Active”.
For `CC(C)=CCCC1=CC(=O)c2c(O)ccc(O)c2C1=O` [DEOXYSHIKONIN], the inhibition entry in [1], in assay [12] and in assay [2] was “inactive” in each case. In the assay on Clostridium perfringens [3], the Kic stood at 15.9 µM. In assay [4], the pKi was 4.92. For the same compound, the inhibition entry in the assay on Clostridium perfringens [5] is “tde”; in the assay with Clostridium perfringens [7], “Dose-dependent effect”; in [9], “Dose-dependent effect”. Also, the pIC50 in assay [8] was 4.56; in assay [10], 4.20. Also, in assay [11], the inhibition entry is “Active”.
Turning to `CC(C)=CC[C@@H](OC(=O)C=C(C)C)C1=CC(=O)c2c(O)ccc(O)c2C1=O` [DIMETHYLACRYLSHIKONIN], the inhibition result in assay [1] and in assay [2] was “inactive” throughout. In addition, in the assay with Clostridium perfringens [3], the Kic came to 0.6 µM. In assay [4], the pKi was 5.76. Further, the inhibition entry with Clostridium perfringens [5] is “tde”; in the assay with Clostridium perfringens [7] it was “Dose-dependent effect”; in assay [9], “Dose-dependent effect”. Moreover, the pIC50 in assay [6] was 3.85; in assay [8] it was 5.72; in [10], 4.33. Further, in [11], the inhibition entry is “Active”.
With `CC(C)=CC[C@@H](OC(=O)C(C)C)C1=CC(=O)c2c(O)ccc(O)c2C1=O` [ISOBUTYLSHIKONIN], the inhibition entry in assay [1] and in assay [2] was “inactive” each time. In addition, the Kic in the assay with Clostridium perfringens [3] is 0.9 µM. Also, in [4], the pKi is 6.59. The inhibition entry in the assay with Clostridium perfringens [5] was “tde”; in the assay with Clostridium perfringens [7] it was “Dose-dependent effect”; in [9], “Dose-dependent effect”. Besides, the pIC50 in [6] is 3.84; in assay [8], 5.54; in assay [10], 4.39. Moreover, the inhibition entry in assay [11] is “Active”.
As to `CC(C)=CC[C@@H](O)C1=CC(=O)c2c(O)ccc(O)c2C1=O` [SHIKONIN], the inhibition entry in assay [1], in [12] and in assay [2] was “inactive” throughout. Also, the Kic in the assay on Clostridium perfringens [3] is 21.4 µM. For the same compound, the pKi in assay [4] is 4.23. Moreover, the values for the inhibition result (in the assay with Clostridium perfringens [5]; in the assay with Clostridium perfringens [7]; in assay [9]) were “tde”, “Dose-dependent effect” and “Dose-dependent effect”, respectively. Further, the pIC50 in assay [8] was 4.27; in assay [10] it was 4.47. In addition, in assay [11], the inhibition entry is “Active”.
As to `CC(C)=CCC(OC(=O)CC(C)C)c1coc(-c2cc(O)ccc2O)c1` (configuration not stated) [SHIKONOFURAN C], the inhibition result in assay [1], in [2] and in assay [13] was “inactive” throughout. Moreover, the Kic in the assay on Clostridium perfringens [3] was 0.2 µM. For the same compound, the pKi in assay [4] is 6.82. The inhibition result with Clostridium perfringens [5] was “tde”; in the assay with Clostridium perfringens [7] it was “Dose-dependent effect”. Further, the figures for the pIC50 in assay [6], in [8] and in [10] were 4.68, 6.22 and less than 4.00, respectively.
For `CC(C)=CCC(OC(=O)C(C)C)c1coc(-c2cc(O)ccc2O)c1` (configuration not stated) [SHIKONOFURAN D], the inhibition entry in assay [1], in assay [2] and in assay [13] was “inactive” each time. Also, in the assay on Clostridium perfringens [3], the Kic was 0.3 µM. Besides, in [4], the pKi was 6.68. In addition, the inhibition entry was “tde” with Clostridium perfringens [5] and “Dose-dependent effect” in the assay on Clostridium perfringens [7]. Further, the pIC50 in assay [6] is 4.42; in [8] it was 6.00; in assay [10], less than 4.00.
As for `CC(C)=CCC(OC(=O)C=C(C)C)c1coc(-c2cc(O)ccc2O)c1` (configuration not stated) [SHIKONOFURAN E], the inhibition result in [1], in assay [2] and in [13] was “inactive” throughout. The Kic in the assay with Clostridium perfringens [3] was 0.1 µM. Further, the pKi in assay [4] was 7.30. Also, the inhibition entry with Clostridium perfringens [5] is “tde”; in the assay on Clostridium perfringens [7], “Dose-dependent effect”. Further, the negative-log IC50 (pIC50) was 4.58 in assay [6], 6.70 in assay [8] and less than 4.00 in [10].
In assay [6], `OCC(CO)N[C@H]1C[C@](O)(CO)[C@@H](O)[C@H](O)[C@H]1O` [VOGLIBOSE] had a pIC50 of 4.63.
